Experimental data reported in US20230011571A1, “SMALL MOLECULE FURIN INHIBITORS FOR TREATING INFECTIOUS DISEASES” (BP Asset V, Inc., priority 2019, published 2023).

How the values were obtained:
Assay type in all cases: cell-based
[1] = system: Chikungunya virus (CHIKV); experiment: microbe, parasite or virus in culture; settings: Chikungunya virus, Vero, 48 h, read-out: Percent viral inhibition CHKV
dengue virus (DENV) = experiment: microbe, parasite or virus in culture; settings: Dengue virus, Vero, 120 h, read-out: Percent viral inhibition DENY
Marburg virus (MARV) = experiment: organism not typed; settings: Vero, 72 h, read-out: Percent viral inhibition MARV

Molecule `NS(=O)(=O)CCCN1CCN(c2ncc(Oc3cc(CN4CCC(CC(=O)O)CC4)cc(-c4cc(Cl)cc(Cl)c4)n3)cn2)CC1` [Example 246, 2-(1-((2-(3,5-dichlorophenyl)-6-((2-(4-(3-sulfamoylpropyl)piperazin-1-yl)pyrimidin-5-yl)oxy)pyridin-4-yl)methyl)piperidin-4-yl)acetic acid] has an inhibition at 1 µM [1] of 24.6%, an inhibition at 1 µM (dengue virus (DENV)) of 50.8% and an inhibition at 1 µM (Marburg virus (MARV)) of 39.9%.
With `COCCN1CCN(c2ncc(Oc3cc(CN4CCC(CC(=O)O)CC4)cc(-c4cc(Cl)cc(Cl)c4)n3)cn2)CC1` [Example 247, 2-(1-((2-(3,5-dichlorophenyl)-6-((2-(4-(2-methoxyethyl)piperazin-1-yl)pyrimidin-5-yl)oxy)pyridin-4-yl)methyl)piperidin-4-yl)acetic acid] the inhibition at 1 µM [1] was 31.1%, the inhibition at 1 µM (dengue virus (DENV)) was 50% and the inhibition at 1 µM (Marburg virus (MARV)) was 49.7%.
For `CNC(=O)OCC1CCN(Cc2cc(Oc3cnc(N4CCN(CCC(=O)O)CC4)nc3)nc(-c3cc(Cl)cc(Cl)c3)c2)CC1` [Example 248, 3-(4-(5-((6-(3,5-dichlorophenyl)-4-((4-(((methylcarbamoyl)oxy)methyl)piperidin-1-yl)methyl)pyridin-2-yl)oxy)pyrimidin-2-yl)piperazin-1-yl) propanoic acid], the inhibition at 1 µM [1] was 34.8%, the inhibition at 1 µM (dengue virus (DENV)) was 81.2% and the inhibition at 1 µM (Marburg virus (MARV)) was 49.6%.
In the case of `CC(=O)NCC1CCN(Cc2cc(Oc3ccc(N4CCN(CCCC(=O)O)CC4)nc3)nc(-c3cc(Cl)cc(Cl)c3)c2)CC1` [Example 249, 4-(4-(5-((4-((4-(acetamidomethyl)piperidin-1-yl)methyl)-6-(3,5-dichlorophenyl)pyridin-2-yl)oxy)pyridin-2-yl)piperazin-1-yl)butanoic acid], the inhibition at 1 µM [1] is reported as 32.5%, the inhibition at 1 µM (dengue virus (DENV)) is reported as 48.6% and the inhibition at 1 µM (Marburg virus (MARV)) is reported as 51.4%.
`COCCN1CCN(c2ccc(Oc3cc(CN4CCC(CNC(C)=O)CC4)cc(-c4cc(Cl)cc(Cl)c4)n3)cn2)CC1` [Example 250, N-((1-((2-(3,5-dichlorophenyl)-6-((6-(4-(2-methoxyethyl)piperazin-1-yl)pyridin-3-yl)oxy)pyridin-4-yl)methyl)piperidin-4-yl)methyl)acetamide] gave an inhibition at 1 µM [1] of 25.9%, an inhibition at 1 µM (dengue virus (DENV)) of 55% and an inhibition at 1 µM (Marburg virus (MARV)) of 0%.
For `CC(=O)NCC1CCN(Cc2cc(Oc3ccc(N4CCN(CCCS(C)(=O)=O)CC4)nc3)nc(-c3cc(Cl)cc(Cl)c3)c2)CC1` [Example 251, N-((1-((2-(3,5-dichlorophenyl)-6-((6-(4-(3-(methylsulfonyl)propyl)piperazin-1-yl)pyridin-3-yl)oxy)pyridin-4-yl)methyl)piperidin-4-yl)methyl)acetamide], the inhibition at 1 µM [1] was 0%, the inhibition at 1 µM (dengue virus (DENV)) was 45.5% and the inhibition at 1 µM (Marburg virus (MARV)) was 38.9%.
`NS(=O)(=O)CCCN1CCN(c2ccc(Oc3cc(CN4CCC(CC(=O)O)CC4)cc(-c4cc(Cl)cc(Cl)c4)n3)cn2)CC1` [Example 252, 2-(1-((2-(3,5-dichlorophenyl)-6-((6-(4-(3-sulfamoylpropyl)piperazin-1-yl)pyridin-3-yl)oxy)pyridin-4-yl)methyl)piperidin-4-yl)acetic acid] was tested, and the inhibition at 1 µM [1] was 33.2%, the inhibition at 1 µM (dengue virus (DENV)) was 23.3% and the inhibition at 1 µM (Marburg virus (MARV)) was 53.5%.
Work on `CC(=O)NCC1CCN(Cc2cc(Oc3cnc(N4CCN(CCCS(N)(=O)=O)CC4)nc3)nc(-c3cc(Cl)cc(Cl)c3)c2)CC1` [Example 253, N-((1-((2-(3,5-dichlorophenyl)-6-((2-(4-(3-sulfamoylpropyl)piperazin-1-yl)pyrimidin-5-yl)oxy)pyridin-4-yl)methyl)piperidin-4-yl)methyl)acetamide] yielded an inhibition at 1 µM [1] of 36.1%, an inhibition at 1 µM (dengue virus (DENV)) of 27.3% and an inhibition at 1 µM (Marburg virus (MARV)) of 52.1%.
Work on `CNC(=O)NCC1CCN(Cc2cc(Oc3ccc(N4CCN(CCOC)CC4)nc3)nc(-c3cc(Cl)cc(Cl)c3)c2)CC1` [Example 254, 1-((1-((2-(3,5-dichlorophenyl)-6-((6-(4-(2-methoxyethyl)piperazin-1-yl)pyridin-3-yl)oxy)pyridin-4-yl)methyl)piperidin-4-yl)methyl)-3-methylurea] yielded an inhibition at 1 µM [1] of 5.74%, an inhibition at 1 µM (dengue virus (DENV)) of 57% and an inhibition at 1 µM (Marburg virus (MARV)) of 40.4%.
With `CNC(=O)NCC1CCN(Cc2cc(Oc3ccc(N4CCN(CCCS(C)(=O)=O)CC4)nc3)nc(-c3cc(Cl)cc(Cl)c3)c2)CC1` [Example 255, 1-((1-((2-(3,5-dichlorophenyl)-6-((6-(4-(3-(methylsulfonyl)propyl)piperazin-1-yl)pyridin-3-yl)oxy)pyridin-4-yl)methyl)piperidin-4-yl)methyl)-3-methylurea] the inhibition at 1 µM [1] was 16.1%, the inhibition at 1 µM (dengue virus (DENV)) was 10.3% and the inhibition at 1 µM (Marburg virus (MARV)) was 40.1%.
In the case of `CNC(=O)NCC1CCN(Cc2cc(Oc3cnc(N4CCN(CCC(=O)O)CC4)nc3)nc(-c3cc(Cl)cc(Cl)c3)c2)CC1` [Example 256, 3-(4-(5-((6-(3,5-dichlorophenyl)-4-((4-((3-methylureido)methyl)piperidin-1-yl)methyl)pyridin-2-yl)oxy)pyrimidin-2-yl)piperazin-1-yl)propanoic acid], the inhibition at 1 µM [1] is reported as 30.4%, the inhibition at 1 µM (dengue virus (DENV)) is reported as 47.2% and the inhibition at 1 µM (Marburg virus (MARV)) is reported as 49.3%.
`CNC(=O)NCC1CCN(Cc2cc(Oc3cnc(N4CCN(CCCS(C)(=O)=O)CC4)nc3)nc(-c3cc(Cl)cc(Cl)c3)c2)CC1` [Example 257, 1-((1-((2-(3,5-dichlorophenyl)-6-((2-(4-(3-(methylsulfonyl)propyl)piperazin-1-yl)pyrimidin-5-yl)oxy)pyridin-4-yl)methyl)piperidin-4-yl)methyl)-3-methylurea] gave an inhibition at 1 µM [1] of 10.3%, an inhibition at 1 µM (dengue virus (DENV)) of 46.5% and an inhibition at 1 µM (Marburg virus (MARV)) of 26.5%.
Work on `CC(=O)NCC1CCN(Cc2cc(Oc3cnc(N4CCN(CCCS(C)(=O)=O)CC4)nc3)nc(-c3cc(Cl)cc(Cl)c3)c2)CC1` [Example 259, N-((1-((2-(3,5-dichlorophenyl)-6-((2-(4-(3-(methylsulfonyl)propyl)piperazin-1-yl)pyrimidin-5-yl)oxy)pyridin-4-yl)methyl)piperidin-4-yl)methyl)acetamide] yielded an inhibition at 1 µM [1] of 15%, an inhibition at 1 µM (dengue virus (DENV)) of 47% and an inhibition at 1 µM (Marburg virus (MARV)) of 67.2%.
In the case of `CNC(=O)NCC1CCN(Cc2cc(Oc3cnc(N4CCN(CCC(N)=O)CC4)nc3)nc(-c3cc(Cl)cc(Cl)c3)c2)CC1` [Example 261, 3-(4-(5-((6-(3,5-dichlorophenyl)-4-((4-((3-methylureido)methyl)piperidin-1-yl)methyl)pyridin-2-yl)oxy)pyrimidin-2-yl)piperazin-1-yl) propanamide], the inhibition at 1 µM [1] is reported as 0.69%, the inhibition at 1 µM (dengue virus (DENV)) is reported as 53.6% and the inhibition at 1 µM (Marburg virus (MARV)) is reported as 56.8%.
Work on `CNC(=O)NCC1CCN(Cc2cc(Oc3cnc(N4CCN(CCOC)CC4)nc3)nc(-c3cc(Cl)cc(Cl)c3)c2)CC1` [Example 262, 1-((1-((2-(3,5-dichlorophenyl)-6-((2-(4-(2-methoxyethyl)piperazin-1-yl)pyrimidin-5-yl)oxy)pyridin-4-yl)methyl)piperidin-4-yl)methyl)-3-methylurea] yielded an inhibition at 1 µM [1] of 19%, an inhibition at 1 µM (dengue virus (DENV)) of 10.3% and an inhibition at 1 µM (Marburg virus (MARV)) of 39.3%.
Molecule `CC(=O)NCC1CCN(Cc2cc(Oc3cnc(N4CCN(CCC(=O)O)CC4)nc3)nc(-c3cc(Cl)cc(Cl)c3)c2)CC1` [Example 263, 3-(4-(5-((4-((4-(acetamidomethyl)piperidin-1-yl)methyl)-6-(3,5-dichlorophenyl)pyridin-2-yl)oxy)pyrimidin-2-yl)piperazin-1-yl)propanoic acid] has an inhibition at 1 µM [1] of 28.9%, an inhibition at 1 µM (dengue virus (DENV)) of 39.7% and an inhibition at 1 µM (Marburg virus (MARV)) of 48.5%.
For `CC(=O)NCC1CCN(Cc2cc(Oc3cnc(N4CCN(CCC(=O)O)CC4)c(F)c3)nc(-c3cc(Cl)cc(Cl)c3)c2)CC1` [Example 266], the inhibition at 1 µM [1] was 22.6%, the inhibition at 1 µM (dengue virus (DENV)) was 48.7% and the inhibition at 1 µM (Marburg virus (MARV)) was 56.3%.
